Our source for the Ki and minimal effective concentration values is US20160296499A1, “Spiroindoline Antiparasitic Derivatives” (ZOETIS SERVICES LLC, priority 2013, published 2016).

One may read the Ki as the equilibrium dissociation constant of an inhibitor or competing ligand from its target.

Experiment [1] concerns the target T1, bovine vesicular acetylcholine transporter (VAChT) (Bos taurus, UniProt E1BK36).
T1 sequence (E1BK36 1-524): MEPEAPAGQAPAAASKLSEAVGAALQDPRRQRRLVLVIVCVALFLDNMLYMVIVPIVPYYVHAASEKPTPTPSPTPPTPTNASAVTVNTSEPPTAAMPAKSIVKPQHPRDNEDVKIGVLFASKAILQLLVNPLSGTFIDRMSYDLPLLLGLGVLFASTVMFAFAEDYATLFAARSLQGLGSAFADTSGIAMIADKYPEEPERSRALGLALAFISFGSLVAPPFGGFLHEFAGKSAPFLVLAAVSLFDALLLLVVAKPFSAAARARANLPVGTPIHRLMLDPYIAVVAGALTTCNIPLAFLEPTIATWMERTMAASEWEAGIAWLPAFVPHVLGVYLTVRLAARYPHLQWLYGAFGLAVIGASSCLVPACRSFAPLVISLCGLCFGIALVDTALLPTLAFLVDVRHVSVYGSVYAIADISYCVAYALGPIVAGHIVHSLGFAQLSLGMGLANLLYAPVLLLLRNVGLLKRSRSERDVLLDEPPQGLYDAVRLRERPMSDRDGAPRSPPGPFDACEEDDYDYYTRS
Nature of the experiment: Radioligand Binding Assay. The settings on record: Bovine binding Ki, CHO-K1 membranes with recombinant bovine VAChT, [3H]Compound X6 0.3 nM.

The test system of experiment [2] is Dirofilaria immitis microfilariae. The experiment can be described thus: Dirofilaria immitis, Microfilariae (DiMF) In Vitro Assay. The settings on record: Dirofilaria immitis.
In a further experiment the test system is Haemonchus contortus L3. Nature of the experiment: Haemonchus contortus, Larvae Stage 3 (HcL3) In Vitro Assay. To be noted: Haemonchus contortus.
Setting [3] is: 72 h, read-out: Di MF, MEC, decrease in microfilariae motility by visual assessment, curve starting at 100 μM.
Setting [4] is: 96 h, read-out: HcL3 MEC, Minimal Effective Concentration whereby worm motility is inhibited by approximately 70%, 37° C., tested 0.001-100 μM.
Where [5] appears, read: 96 hours, 37° C., read-out: HcL3 MEC.

Molecules are shown by their SMILES. Read-outs that look alike come from different tables or passages of the source.

With `O=C(NCc1ccnc(F)c1)N1CC2(CCN(C/C=C/c3ccc(Cl)cc3)CC2)c2cc(-c3cc[nH]c(=O)c3)ccc21` [Example 83, (E)-1′-(3-(4-chlorophenyl)allyl)-N-((2-fluoropyridin-4-yl)methyl)-5-(2-oxo-1,2-dihydropyridin-4-yl)spiro[indoline-3,4′-piperidine]-1-carboxamide], the Ki in experiment [1] is 11200 nM. Further, the minimal effective concentration in experiment [2] (setting [3]) came out at 6.9 µM; in the experiment on Haemonchus contortus L3 (setting [4]) it was 100 µM.

For the compound `O=C(NCc1ccnc(F)c1)N1CC2(CCN(C/C=C/c3ccc(Cl)cc3)CC2)c2cc(C3CC3)ccc21` [Example 84, (E)-1′-(3-(4-chlorophenyl)allyl)-5-cyclopropyl-N-((2-fluoropyridin-4-yl)methyl)spiro[indoline-3,4′-piperidine]-1-carboxamide], the Ki in experiment [1] was determined as 680 nM. Moreover, the minimal effective concentration came out at 3.3 µM in experiment [2] (72 hours, read-out: Di MF) and 100 µM in the experiment with Haemonchus contortus L3 (setting [5]).

In the case of `O=C(NCc1cnc(Cl)s1)N1CC2(CCN(C/C=C/c3ccc(Cl)cc3)CC2)c2cc(C(F)(F)F)ccc21` [Example 85, (E)-1′-(3-(4-chlorophenyl)allyl)-N-((2-chlorothiazol-5-yl)methyl)-5-(trifluoromethyl)spiro[indoline-3,4′-piperidine]-1-carboxamide], the Ki in experiment [1] came out at 226 nM. Also, the minimal effective concentration in experiment [2] (72 hours, read-out: Di MF) is 10 µM; in the experiment with Haemonchus contortus L3 (setting [5]), 18.2 µM.

`N#Cc1cc2c(cn1)N(C(=O)NCc1ccnc(Cl)c1)CC21CCN(C/C=C/c2ccc(Cl)cc2)CC1` [Example 86, (E)-1-(3-(4-chlorophenyl)allyl)-N-((2-chloropyridin-4-yl)methyl)-5′-cyanospiro[piperidine-4,3′-pyrrolo[2,3-c]pyridine]-1′(2′H)-carboxamide]: the inhibition constant Ki in experiment [1] is 31.7 nM. Also, the minimal effective concentration in experiment [2] (setting [3]) amounted to 5.7 µM; in the experiment on Haemonchus contortus L3 (setting [4]), 3.3 µM.

Consider `N#Cc1ccc2c(n1)C1(CCN(C/C=C/c3ccc(Cl)cc3)CC1)CN2C(=O)NCc1ccnc(Cl)c1` [Example 87, (E)-1-(3-(4-chlorophenyl)allyl)-N-((2-chloropyridin-4-yl)methyl)-5′-cyanospiro[piperidine-4,3′-pyrrolo[3,2-b]pyridine]-1′(2′H)-carboxamide], for which the Ki in experiment [1] is 38.1 nM. The minimal effective concentration in experiment [2] (setting [3]) turned out to be 5.7 µM; with Haemonchus contortus L3 (setting [4]), 18.2 µM.

For the compound `O=C(NCc1ccnc(Cl)c1)N1CC2(CCN(C/C=C/c3ccc(Cl)cc3)CC2)c2c(OC(F)(F)F)cccc21` [Example 88, (E)-1′-(3-(4-chlorophenyl)allyl)-N-((2-chloropyridin-4-yl)methyl)-4-(trifluoromethoxy)spiro[indoline-3,4′-piperidine]-1-carboxamide], in experiment [1], the Ki turned out to be 1130 nM. For the same compound, the minimal effective concentration in experiment [2] (setting [3]) is 3.3 µM; in the experiment with Haemonchus contortus L3 (setting [4]), 100 µM.

For `O=C(NCc1ccnc(Cl)c1)N1CC2(CCN(C/C=C/c3ccc(Cl)cc3)CC2)c2c(SC(F)(F)F)cccc21` [Example 89, (E)-1′-(3-(4-chlorophenyl)allyl)-N-((2-chloropyridin-4-yl)methyl)-4-(trifluoromethylthio)spiro[indoline-3,4′-piperidine]-1-carboxamide], the Ki in experiment [1] stood at 774 nM. The minimal effective concentration turned out to be 6.9 µM in experiment [2] (setting [3]) and 100 µM with Haemonchus contortus L3 (setting [4]).

Regarding `O=C(NCc1ccnc(F)c1)N1CC2(CCN(C/C=C/c3ccc(Cl)cc3)CC2)c2c(F)cc(C(F)(F)F)cc21` [Example 90, (E)-1′-(3-(4-chlorophenyl)allyl)-4-fluoro-N-((2-fluoropyridin-4-yl)methyl)-6-(trifluoromethyl)spiro[indoline-3,4′-piperidine]-1-carboxamide], the Ki in experiment [1] came out at 256 nM. Moreover, the minimal effective concentration was found to be 10 µM in experiment [2] (setting [3]) and 1.8 µM with Haemonchus contortus L3 (setting [4]).

In the case of `O=C(NCc1ccnc(F)c1)N1CC2(CCN(C/C=C/c3ccc(Cl)cc3)CC2)c2c(-c3ccccc3)cccc21` [Example 91, (E)-1′-(3-(4-chlorophenyl)allyl)-N-((2-fluoropyridin-4-yl)methyl)-4-phenylspiro[indoline-3,4′-piperidine]-1-carboxamide], the Ki in experiment [1] was 295 nM. The minimal effective concentration in experiment [2] (setting [3]) amounted to 3.3 µM; with Haemonchus contortus L3 (setting [4]), 100 µM.

With `O=C(NCc1ccnc(F)c1)N1CC2(CCN(C/C=C/c3ccc(Cl)cc3)CC2)c2c1cccc2C(F)(F)F` [Example 92, (E)-1′-(3-(4-chlorophenyl)allyl)-N-((2-fluoropyridin-4-yl)methyl)-4-(trifluoromethyl)spiro[indoline-3,4′-piperidine]-1-carboxamide], the Ki in experiment [1] amounted to 796 nM. Moreover, the minimal effective concentration (in experiment [2] (setting [3]); with Haemonchus contortus L3 (setting [4])) was 5 µM in each case.

On to `O=C(NCc1ccnc(F)c1)N1CC2(CCN(C/C=C/c3ccc(Cl)cc3)CC2)c2c(C3CC3)cccc21` [Example 93, (E)-1′-(3-(4-chlorophenyl)allyl)-4-cyclopropyl-N-((2-fluoropyridin-4-yl)methyl)spiro[indoline-3,4′-piperidine]-1-carboxamide], for which the Ki in experiment [1] came out at 958 nM. Also, the minimal effective concentration in experiment [2] (setting [3]) was 5.7 µM; in the experiment with Haemonchus contortus L3 (setting [4]), 100 µM.

As to `O=C(NCc1ccnc(F)c1)N1CC2(CCN(C/C=C/c3ccc(Cl)cc3)CC2)c2c(OC(F)(F)F)cccc21` [Example 94, (E)-1′-(3-(4-chlorophenyl)allyl)-N-((2-fluoropyridin-4-yl)methyl)-4-(trifluoromethoxy)spiro[indoline-3,4′-piperidine]-1-carboxamide], the Ki in experiment [1] was 3930 nM. For the same compound, the minimal effective concentration turned out to be 3.3 µM in experiment [2] (setting [3]) and 100 µM in the experiment on Haemonchus contortus L3 (setting [4]).

`O=C(NCc1cnc(Cl)s1)N1CC2(CCN(C/C=C/c3ccc(Cl)cc3)CC2)c2c(OC(F)(F)F)cccc21` [Example 95, (E)-1′-(3-(4-chlorophenyl)allyl)-N-((2-chlorothiazol-5-yl)methyl)-4-(trifluoromethoxy)spiro[indoline-3,4′-piperidine]-1-carboxamide]: the Ki in experiment [1] amounted to 1010 nM. The minimal effective concentration was 3.3 µM in experiment [2] (setting [3]) and 100 µM in the experiment with Haemonchus contortus L3 (setting [4]).

`N#Cc1ccc(/C=C/CN2CCC3(CC2)CN(C(=O)NCc2ccnc(Cl)c2)c2cc(-c4ccccc4C(F)(F)F)ccc23)cc1` [Example 96, (E)-N-((2-chloropyridin-4-yl)methyl)-1′-(3-(4-cyanophenyl)allyl)-6-(2-(trifluoromethyl)phenyl)spiro[indoline-3,4′-piperidine]-1-carboxamide]: the Ki in experiment [1] was found to be 25.4 nM. The minimal effective concentration in experiment [2] (setting [3]) is 5.7 µM; in the experiment on Haemonchus contortus L3 (setting [4]), 100 µM.

Consider `N#Cc1ccc(/C=C/CN2CCC3(CC2)CN(C(=O)NCc2ccnc(Cl)c2)c2ccc([N+](=O)[O-])cc23)cc1` [Example 97, (E)-N-((2-chloropyridin-4-yl)methyl)-1′-(3-(4-cyanophenyl)allyl)-5-nitrospiro[indoline-3,4′-piperidine]-1-carboxamide], for which, in experiment [1], the Ki is 63.7 nM. Also, the minimal effective concentration in experiment [2] (setting [3]) turned out to be 5.7 µM; in the experiment with Haemonchus contortus L3 (setting [4]), 33 µM.

As to `N#Cc1ccc(/C=C/CN2CCC3(CC2)CN(C(=O)NCc2ccnc(Cl)c2)c2c(F)ccc(C(F)(F)F)c23)cc1` [Example 98, (E)-N-((2-chloropyridin-4-yl)methyl)-1′-(3-(4-cyanophenyl)allyl)-7-fluoro-4-(trifluoromethyl)spiro[indoline-3,4′-piperidine]-1-carboxamide], in experiment [1], the Ki was determined as 1570 nM. The minimal effective concentration in experiment [2] (setting [3]) was 10 µM; in the experiment on Haemonchus contortus L3 (setting [4]), 100 µM.

For `N#Cc1ccc(/C=C/CN2CCC3(CC2)CN(C(=O)NCc2ccnc(Cl)c2)c2cccc(C(F)(F)F)c23)cc1` [Example 99, (E)-N-((2-chloropyridin-4-yl)methyl)-1′-(3-(4-cyanophenyl)allyl)-4-(trifluoromethyl)spiro[indoline-3,4′-piperidine]-1-carboxamide], the Ki in experiment [1] amounted to 306 nM. In addition, the values for the minimal effective concentration (in experiment [2] (setting [3]); in the experiment with Haemonchus contortus L3 (setting [4])) were 5.7 µM and 10 µM, respectively.

For `O=C(NCc1ccnc(F)c1)N1CC2(CCN(C/C=C/c3ccc(F)cc3)CC2)c2ccc(OC(F)(F)F)cc21` [Example 100, (E)-1′-(3-(4-fluorophenyl)allyl)-N-((2-fluoropyridin-4-yl)methyl)-6-(trifluoromethoxy)spiro[indoline-3,4′-piperidine]-1-carboxamide], in experiment [1], the Ki came to 121 nM. Besides, the values for the minimal effective concentration (in experiment [2] (setting [3]); in the experiment on Haemonchus contortus L3 (setting [4])) were 10 µM and 3.3 µM, respectively.

As to `O=C(NCc1ccnc(F)c1)N1CC2(CCN(C/C=C/c3ccc(F)cc3)CC2)c2ccc(C(F)(F)F)cc21` [Example 101, (E)-1′-(3-(4-fluorophenyl)allyl)-N-((2-fluoropyridin-4-yl)methyl)-6-(trifluoromethyl)spiro[indoline-3,4′-piperidine]-1-carboxamide], the Ki in experiment [1] is 65.2 nM. The minimal effective concentration in experiment [2] (72 hours, read-out: Di MF) is 10 µM; in the experiment with Haemonchus contortus L3 (setting [5]) it was 3.3 µM.
